This test has as its target α-melanocyte-stimulating hormone receptor (hMC4R) (Homo sapiens (Human), UniProt P32245). In words: In vitro binding affinity assay using hMC4R (radioligand competition binding, [125I]-(Nle4, D-Phe7)-α-MSH). Particulars: geometric mean. The method, then: The binding affinity of test compounds at the α-melanocyte-stimulating hormone receptor (hMC4R) was assessed using a radioligand competition binding assay. Recombinant Chinese hamster ovaries (CHO) cells stably expressing hMC4R (PerkinElmer #ES-191-C) were used for competitive binding. hMC4R membranes were grown in Dulbecco's Modified Essential Medium and Ham's F-12 Medium (DMEM/F12), 10% heat inactivated fetal bovine serum (FBS), 0.4 mg/mL Geneticin and 2 mM L-glutamine. Cell membranes were bulked and frozen until the assay was performed.
Compounds were solubilized in 100% dimethyl sulfoxide (DMSO) to a concentration of 30 mM. A 10-point intermediate dilution series using half log dilutions was created in 100% DMSO with a top concentration of 0.03 mM. The serially diluted compounds were spotted as 1 μL/well, in 96-well Costar 3363 plates. The final compound range in the assay was 300 nM to 0.01 nM with a final DMSO concentration of 1%. Control wells, containing 1 μL of 2 mM ([…]) alpha-melanocyte stimulating hormone (α-MSH-Tocris #2584) was added to the non-specific binding wells and 1 μL 100% DMSO for the total binding control wells. […] The exact concentration of radioligand used for each experiment was determined by liquid scintillation counting and adjusted if necessary.
Frozen hMC4R cell membranes were thawed and Dounce homogenized. Homogenates were resuspended in assay buffer to a concentration of 2 μg per well. […] The plates were incubated for 2 hours at room temperature. Assay samples were then rapidly filtered through Unifilter-96 GF/B PEI coated filter plates using a filter plate harvester (PerkinElmer) and rinsed with ice-cold wash buffer [25 mM (4-(2-hydroxyethyl)-1-piperazineethanesulfonic acid (HEPES), 1 mM MgCl2, 2.5 mM CaCl2, and 500 mM NaCl]. Filter plates were dried overnight at room temperature. Plates were then bottom-sealed prior to the addition of 50 μL/well Ultima Gold XR scintillation fluid (PerkinElmer 6013111). Plates were then top-sealed, incubated for 60 minutes at room temperature and then the amount of radioactivity present was determined by liquid scintillation counting on a Microbeta Trilux (PerkinElmer #2450-0060).
The raw data (expressed as counts per minute) were analyzed using ActivityBase (IDBS Data Management Software). […] Equilibrium dissociation constant for inhibitor of ligand and receptor interaction (Ki) values were then calculated from the IC50 values using the Cheng-Prusoff equation: Ki=IC50/(1+([L]/Kd)), where [L] is the concentration of the radioligand used in the experiment and Kd is the affinity of the radioligand (determined in separate saturation experiments).
For orientation: Loss of bound radioactivity is the signal in a displacement assay; it reports binding, not function.

Where [1] appears, read: read-out: Ki (nM) geometric mean.

Read-outs that look alike come from different tables or passages of the source.

Chain of α-melanocyte-stimulating hormone receptor (hMC4R) (P32245 whole entry): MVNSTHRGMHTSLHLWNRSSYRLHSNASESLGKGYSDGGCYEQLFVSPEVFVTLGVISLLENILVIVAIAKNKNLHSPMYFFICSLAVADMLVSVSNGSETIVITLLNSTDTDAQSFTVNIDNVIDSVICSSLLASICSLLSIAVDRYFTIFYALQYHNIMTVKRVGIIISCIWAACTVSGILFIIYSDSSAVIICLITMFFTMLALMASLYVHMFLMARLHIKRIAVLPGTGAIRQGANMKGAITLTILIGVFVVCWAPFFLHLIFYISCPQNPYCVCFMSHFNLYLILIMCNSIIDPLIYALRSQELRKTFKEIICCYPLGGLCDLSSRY

As usually defined, the Ki is a dissociation constant, usually derived from enzyme kinetics or from competition with a known ligand. Turning to `COc1cc([C@@H](C)C(=O)N2CC[C@@]3(CCc4cc(-c5ncccn5)c(C)nc4N3)C2)c(F)cn1` [Example 14, (2R)-2-(5-Fluoro-2-methoxypyridin-4-yl)-1-[(2S)-7-methyl-6-(pyrimidin-2-yl)-3,4-dihydro-1H-spiro[1,8-naphthyridine-2,3′-pyrrolidin]-1′-yl]propan-1-one], under setting [1], the inhibition constant (Ki) was determined as 0.46 nM.
On the same count and under the same terms, the value for `COc1cc([C@@H](C)C(=O)N2CC[C@@]3(CCc4cc(-c5ncccn5)c(C)nc4N3)C2)c(Cl)cn1` [Example 15, (2R)-2-(5-Chloro-2-methoxypyridin-4-yl)-1-[(2S)-7-methyl-6-(pyrimidin-2-yl)-3,4-dihydro-1H-spiro[1,8-naphthyridine-2,3′-pyrrolidin]-1′-yl]propan-1-one] was 0.25 nM; that for `[2H]c1cc([2H])nc(-c2cc3c(nc2C)N[C@@]2(CC3)CCN(C(=O)[C@H](C)c3cc(OC)ncc3F)C2)n1` [Example 18, (2R)-2-(5-Fluoro-2-methoxypyridin-4-yl)-1-{(2S)-7-methyl-6-[(4,6-2H2)pyrimidin-2-yl]-3,4-dihydro-1H-spiro[1,8-naphthyridine-2,3′-pyrrolidin]-1′-yl}propan-1-one] was 0.18 nM; that for `COc1cc([C@@H](C)C(=O)N2CC[C@@]3(CCc4cc(-c5ncc(C(F)F)cn5)c(C)nc4N3)C2)c(F)cn1` [Example 21, (2R)-1-{(2S)-6-[5-(difluoromethyl)pyrimidin-2-yl]-7-methyl-3,4-dihydro-1H-spiro[1,8-naphthyridine-2,3′-pyrrolidin]-1′-yl}-2-(5-fluoro-2-methoxypyridin-4-yl)propan-1-one] was 2.2 nM.
In the case of `COc1cc([C@@H](C)C(=O)N2CC[C@@]3(CCc4cc(-c5ncc(Br)cn5)c(C)nc4N3)C2)c(F)cn1` [Example 22, (2R)-1-[(2S)-6-(5-bromopyrimidin-2-yl)-7-methyl-3,4-dihydro-1H-spiro[1,8-naphthyridine-2,3′-pyrrolidin]-1′-yl]-2-(5-fluoro-2-methoxypyridin-4-yl)propan-1-one], the inhibition constant Ki under setting [1] is 2 nM.
The same measure, in the same setting: the value for `COc1cc([C@@H](C)C(=O)N2CC[C@@]3(CCc4cc(-c5cn(C(F)(F)F)c(C)n5)c(C)nc4N3)C2)c(F)cn1` [Example 27, (2R)-2-(5-fluoro-2-methoxypyridin-4-yl)-1-{(2S)-7-methyl-6-[2-methyl-1-(trifluoromethyl)-1H-imidazol-4-yl]-3,4-dihydro-1H-spiro[1,8-naphthyridine-2,3′-pyrrolidin]-1′-yl}propan-1-one] was 2 nM.
Still for that read-out and setting: the value for `COc1cc([C@H](C)C(=O)N2CC[C@@]3(CCc4cc(-c5ncccn5)c(C)nc4N3)C2)c(F)cn1` [Example 28, (2S)-2-(5-fluoro-2-methoxypyridin-4-yl)-1-[(2S)-7-methyl-6-(pyrimidin-2-yl)-3,4-dihydro-1H-spiro[1,8-naphthyridine-2,3′-pyrrolidin]-1′-yl]propan-1-one] was 160 nM.
Same read-out and setting: the value for `COc1cc([C@@H](C)C(=O)N2CC[C@]3(CCc4cc(-c5ncccn5)c(C)nc4N3)C2)c(F)cn1` [Example 29, (2R)-2-(5-fluoro-2-methoxypyridin-4-yl)-1-[(2R)-7-methyl-6-(pyrimidin-2-yl)-3,4-dihydro-1H-spiro[1,8-naphthyridine-2,3′-pyrrolidin]-1′-yl]propan-1-one] was 11 nM.
Consider `COc1cc([C@H](C)C(=O)N2CC[C@]3(CCc4cc(-c5ncccn5)c(C)nc4N3)C2)c(F)cn1` [Example 30, (2S)-2-(5-fluoro-2-methoxypyridin-4-yl)-1-[(2R)-7-methyl-6-(pyrimidin-2-yl)-3,4-dihydro-1H-spiro[1,8-naphthyridine-2,3′-pyrrolidin]-1′-yl]propan-1-one], for which the Ki under setting [1] was above 250 nM.
The same measure, in the same setting: the value for `Cc1nc2c(cc1-c1ncccn1)CC[C@@]1(CCN(C(=O)Cc3cc(F)c(F)c(F)c3)C1)N2` [Example 54, 1-[(2S)-7-methyl-6-(pyrimidin-2-yl)-3,4-dihydro-1H-spiro[1,8-naphthyridine-2,3′-pyrrolidin]-1′-yl]-2-(3,4,5-trifluorophenyl)ethan-1-one] was 0.93 nM; that for `COc1cnc(-c2cc3c(nc2C)N[C@@]2(CC3)CCN(C(=O)[C@H](C)c3cc(OC)ncc3F)C2)nc1` [Example 67, (2R)-2-(5-fluoro-2-methoxypyridin-4-yl)-1-[(2S)-6-(5-methoxypyrimidin-2-yl)-7-methyl-3,4-dihydro-1H-spiro[1,8-naphthyridine-2,3′-pyrrolidin]-1′-yl]propan-1-one] was 2.5 nM; that for `COc1cc([C@@H](C)C(=O)N2CC[C@@]3(CCc4cc(-c5ncc(C(F)(F)F)cc5F)c(C)nc4N3)C2)c(F)cn1` [Example 68, (2R)-2-(5-fluoro-2-methoxypyridin-4-yl)-1-{(2S)-6-[3-fluoro-5-(trifluoromethyl)pyridin-2-yl]-7-methyl-3,4-dihydro-1H-spiro[1,8-naphthyridine-2,3′-pyrrolidin]-1′-yl}propan-1-one] was 35 nM.
On the same count and under the same terms, next, `COc1cc([C@@H](C)C(=O)N2CC[C@@]3(CCc4cc(-c5nc(C(F)(F)F)ccc5F)c(C)nc4N3)C2)c(F)cn1` [Example 69, (2R)-2-(5-fluoro-2-methoxypyridin-4-yl)-1-{(2S)-6-[3-fluoro-6-(trifluoromethyl)pyridin-2-yl]-7-methyl-3,4-dihydro-1H-spiro[1,8-naphthyridine-2,3′-pyrrolidin]-1′-yl}propan-1-one]: 5.1 nM.
Same read-out and setting: the value for `COc1cc([C@@H](C)C(=O)N2CC[C@@]3(CCc4cc(-c5cnc(C6CC6)cn5)c(C)nc4N3)C2)c(F)cn1` [Example 70, (2R)-1-[(2S)-6-(5-cyclopropylpyrazin-2-yl)-7-methyl-3,4-dihydro-1H-spiro[1,8-naphthyridine-2,3′-pyrrolidin]-1′-yl]-2-(5-fluoro-2-methoxypyridin-4-yl)propan-1-one] was 40 nM; that for `COc1cc([C@@H](C)C(=O)N2CC[C@@]3(CCc4cc(-c5cc(C(F)(F)F)ncn5)c(C)nc4N3)C2)c(F)cn1` [Example 72, (2R)-2-(5-fluoro-2-methoxypyridin-4-yl)-1-{(2S)-7-methyl-6-[6-(trifluoromethyl)pyrimidin-4-yl]-3,4-dihydro-1H-spiro[1,8-naphthyridine-2,3′-pyrrolidin]-1′-yl}propan-1-one] was 3.3 nM; that for `[2H]C([2H])([2H])Oc1cc([C@@H](C)C(=O)N2CC[C@@]3(CCc4cc(-c5ncccn5)c(C)nc4N3)C2)c(F)cn1` [Example 74, (2R)-2-{5-fluoro-2-[(^2H3)methyloxy]pyridin-4-yl}-1-[(2S)-7-methyl-6-(pyrimidin-2-yl)-3,4-dihydro-1H-spiro[1,8-naphthyridine-2,3′-pyrrolidin]-1′-yl]propan-1-one] was 1.3 nM.
Consider `COc1cc([C@@H](C)C(=O)N2CC[C@]3(CCc4cc(-c5nnn(C)n5)c(C)nc4N3)C2)c(F)cn1` [Example 116, (2R)-2-(5-fluoro-2-methoxypyridin-4-yl)-1-[(2R)-7-methyl-6-(2-methyl-2H-tetrazol-5-yl)-3,4-dihydro-1H-spiro[1,8-naphthyridine-2,3′-pyrrolidin]-1′-yl]propan-1-one], for which the inhibitory constant (Ki) (read-out: Ki (nM) geometric) is 7.1 nM.
The same measure, in the same setting: next, `COc1cc([C@@H](C)C(=O)N2CC[C@@]3(CCc4cc(-c5cnn(C)n5)c(C)nc4N3)C2)c(F)cn1` [Example 118, (2R)-2-(5-fluoro-2-methoxypyridin-4-yl)-1-[(2S)-7-methyl-6-(2-methyl-2H-1,2,3-triazol-4-yl)-3,4-dihydro-1H-spiro[1,8-naphthyridine-2,3′-pyrrolidin]-1′-yl]propan-1-one]: 0.83 nM; `COc1cc([C@@H](C)C(=O)N2CC[C@@]3(CCc4cc(-c5cnn(C)n5)c(C)nc4N3)C2)c(Cl)cn1` [Example 119, (2R)-2-(5-chloro-2-methoxypyridin-4-yl)-1-[(2S)-7-methyl-6-(2-methyl-2H-1,2,3-triazol-4-yl)-3,4-dihydro-1H-spiro[1,8-naphthyridine-2,3′-pyrrolidin]-1′-yl]propan-1-one]: above 17 nM; `COc1cc([C@@H](C)C(=O)N2CC[C@@]3(CCc4cc(-c5nc(C(F)F)n(C)n5)c(C)nc4N3)C2)c(Cl)cn1` [Example 120, (2R)-2-(5-chloro-2-methoxypyridin-4-yl)-1-{(2S)-6-[5-(difluoromethyl)-1-methyl-1H-1,2,4-triazol-3-yl]-7-methyl-3,4-dihydro-1H-spiro[1,8-naphthyridine-2,3′-pyrrolidin]-1′-yl}propan-1-one]: 0.4 nM.

The values are drawn from patent publication US20250084084A1, “Crystalline form of (2R)-2-(5-fluoro-2-methoxypyridin-4-yl)-1-[(2S)-7-methyl-6-(pyrimidin-2-yl)-3,4-dihydro-1H-spiro[1,8-naphthyridine-2,3-pyrrolidin]-1-yl]propan-1-one” (Pfizer Inc., priority 2020, published 2025).
